Laboratory results published in ChEMBL document CHEMBL5584334, “Discovery of a Covalent Inhibitor of Pro-Caspase-1 Zymogen Blocking NLRP3 Inflammasome Activation and Pyroptosis” (J Med Chem, 2024).
Calls of active or inactive are those of the source. The rule behind the calls is not given here.

Tests used:
[1] = target: NACHT, LRR and PYD domains-containing protein 3 (Mus musculus) (UniProt Q8R4B8); assay: Inhibition of NLRP3 inflammasome activation in mouse BMDMs assessed as reduction in IL-1beta production at 0.5 to 2 uM pretreated with pam3CSK4 for 3 hrs followed by compound addition for 30 mins prior to cytosolic LPS stimulation for 16 hrs by ELISA; format: cell-based; details: BMDM, dose 0.5-2 µM, time 16.5 hrs
NACHT, LRR and PYD domains-containing protein 3 (Mus musculus), sequence (Q8R4B8 whole entry, the tested form may be a part): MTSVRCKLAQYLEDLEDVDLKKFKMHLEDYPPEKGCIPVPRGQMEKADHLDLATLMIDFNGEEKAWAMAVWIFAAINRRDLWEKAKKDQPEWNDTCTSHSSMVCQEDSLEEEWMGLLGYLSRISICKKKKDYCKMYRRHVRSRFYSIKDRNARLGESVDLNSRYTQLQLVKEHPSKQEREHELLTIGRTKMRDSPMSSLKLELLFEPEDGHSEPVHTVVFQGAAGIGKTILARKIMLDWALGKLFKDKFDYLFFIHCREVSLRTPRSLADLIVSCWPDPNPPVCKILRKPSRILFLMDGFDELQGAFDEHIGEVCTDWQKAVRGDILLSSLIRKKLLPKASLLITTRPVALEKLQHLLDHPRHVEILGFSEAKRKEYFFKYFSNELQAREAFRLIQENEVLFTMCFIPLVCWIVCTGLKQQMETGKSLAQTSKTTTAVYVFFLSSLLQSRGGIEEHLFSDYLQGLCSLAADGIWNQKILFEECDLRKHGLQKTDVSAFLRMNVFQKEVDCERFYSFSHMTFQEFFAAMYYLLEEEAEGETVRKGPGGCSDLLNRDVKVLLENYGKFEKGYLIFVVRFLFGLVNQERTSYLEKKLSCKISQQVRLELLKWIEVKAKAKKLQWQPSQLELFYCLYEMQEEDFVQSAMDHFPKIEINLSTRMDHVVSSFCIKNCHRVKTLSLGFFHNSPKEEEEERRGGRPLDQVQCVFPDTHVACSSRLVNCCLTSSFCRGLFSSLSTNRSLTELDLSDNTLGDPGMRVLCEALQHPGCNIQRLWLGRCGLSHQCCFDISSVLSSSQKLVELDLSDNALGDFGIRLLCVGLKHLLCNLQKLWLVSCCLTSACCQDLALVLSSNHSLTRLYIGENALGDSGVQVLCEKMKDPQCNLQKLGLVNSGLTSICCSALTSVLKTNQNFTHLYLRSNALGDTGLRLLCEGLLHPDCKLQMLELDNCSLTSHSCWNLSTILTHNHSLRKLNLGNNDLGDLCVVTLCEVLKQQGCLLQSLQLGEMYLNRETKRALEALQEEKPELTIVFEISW

Caspase-1 (Homo sapiens) = target: T1, Caspase-1 (Homo sapiens) (UniProt P29466); assay: Inhibition of recombinant human caspase-1 expressed in Escherichia coli BL21 cells assessed as remaining activity at 100 uM using […] as substrate incubated for 30 mins relative to control
T1 sequence (whole entry): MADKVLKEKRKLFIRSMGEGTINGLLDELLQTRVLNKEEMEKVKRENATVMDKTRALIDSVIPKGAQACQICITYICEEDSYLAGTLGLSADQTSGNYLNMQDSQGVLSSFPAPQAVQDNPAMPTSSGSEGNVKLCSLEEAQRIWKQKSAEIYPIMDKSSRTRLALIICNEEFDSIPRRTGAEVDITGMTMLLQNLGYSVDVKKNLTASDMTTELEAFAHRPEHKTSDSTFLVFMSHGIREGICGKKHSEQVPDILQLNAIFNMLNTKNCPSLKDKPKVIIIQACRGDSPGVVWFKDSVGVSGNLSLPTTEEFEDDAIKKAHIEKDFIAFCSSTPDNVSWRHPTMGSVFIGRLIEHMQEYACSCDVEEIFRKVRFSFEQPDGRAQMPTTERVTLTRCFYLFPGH

J774.A1 [2] = assay: Inhibition of pro-caspase 1 to RIP2 interaction in LPS stimulated mouse J774.A1 cells at 1 uM by immunoprecipitation method; format: cell-based
THP-1 [3] = assay: Effect on pro caspase-5 expression in human THP-1 cells at 2 uM pretreated with pam3CSK4 for 3 hrs followed by compound addition for 30 mins prior to cytosolic LPS stimulation for 16 hrs by ELISA; format: functional, cell-based; details: time 16.5 hrs
THP-1 [4] = assay: Effect on pro-caspase-4 expression in human THP-1 cells at 2 uM pretreated with pam3CSK4 for 3 hrs followed by compound addition for 30 mins prior to cytosolic LPS stimulation for 16 hrs by ELISA; format: functional, cell-based; details: time 16.5 hrs
Caspase-1 (Mus musculus) = target: T2, Caspase-1 (Mus musculus) (UniProt P29452); assay: Binding affinity to caspase-1 in LPS-induced mouse J774.A1 cells assessed as reduction in IL-1beta level at 0.5 uM preincubated with compound followed by nigericin addition; format: cell-based; details: time 3-24 hrs, TDE = time-dependent effect
T2 sequence (whole entry): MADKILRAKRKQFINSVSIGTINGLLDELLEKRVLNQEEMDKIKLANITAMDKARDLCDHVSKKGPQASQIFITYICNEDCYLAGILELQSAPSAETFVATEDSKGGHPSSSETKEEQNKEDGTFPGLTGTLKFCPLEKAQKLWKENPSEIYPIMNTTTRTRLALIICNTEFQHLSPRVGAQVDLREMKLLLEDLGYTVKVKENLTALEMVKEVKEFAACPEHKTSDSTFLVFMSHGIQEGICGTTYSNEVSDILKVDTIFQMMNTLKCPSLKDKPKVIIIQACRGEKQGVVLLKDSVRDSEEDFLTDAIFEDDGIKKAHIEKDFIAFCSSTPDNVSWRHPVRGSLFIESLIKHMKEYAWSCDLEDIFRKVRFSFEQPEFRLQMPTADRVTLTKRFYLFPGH

HEK293T [5] = assay: Inhibition of recombinant caspae-1 C285A/C397A double mutant (unknown origin) to GSDMD (unknown origin) interaction expressed in HEK293T cells; format: cell-based; details: Homo sapiens
THP-1 [6] = assay: Effect on pro-caspase 1 protein expression in LPS/MSU stimulated human THP-1 cells supernatant by Western blotting analysis; format: functional, cell-based
[7] = system: Caspase-1 (Homo sapiens), P29466 [C270A]; assay: Inhibition of recombinant caspase-1 C270A mutant (unknown origin) at 100 uM relative to control
Caspase-1 (Homo sapiens), P29466 [C270A], sequence (P29466 whole entry C270A): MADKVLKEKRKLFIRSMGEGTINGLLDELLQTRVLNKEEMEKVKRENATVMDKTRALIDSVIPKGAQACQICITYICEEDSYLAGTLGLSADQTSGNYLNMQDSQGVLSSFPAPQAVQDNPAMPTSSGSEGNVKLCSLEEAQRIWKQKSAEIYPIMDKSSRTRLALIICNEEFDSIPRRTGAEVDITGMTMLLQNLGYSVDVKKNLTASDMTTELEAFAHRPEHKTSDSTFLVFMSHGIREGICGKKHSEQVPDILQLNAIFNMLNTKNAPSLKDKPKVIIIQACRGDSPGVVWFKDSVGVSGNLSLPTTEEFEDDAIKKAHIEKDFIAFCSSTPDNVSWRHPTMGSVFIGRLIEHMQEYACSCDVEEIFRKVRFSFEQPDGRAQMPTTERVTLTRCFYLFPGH

[8] = system: Caspase-1 (Homo sapiens), P29466 [C244A]; assay: Binding affinity to recombinant caspase-1 C244A mutant (unknown origin) at 2 uM by SDS-PAGE analysis
Caspase-1 (Homo sapiens), P29466 [C244A], sequence (P29466 whole entry C244A): as the sequence (P29466 whole entry C270A) above, with C244A, A270C counted along it

[9] = Acute toxicity in Kunming mouse assessed as liver damage at 100 mg/kg, ip administered for 14 days; format: organism-based; details: in vivo, 336 h, time 14 day
HEK293T [10] = assay: Inhibition of recombinant caspae-1 C169A mutant (unknown origin) to GSDMD (unknown origin) interaction expressed in HEK293T cells; format: cell-based; details: Homo sapiens
BMDM = assay: Effect on cleaved caspase-11 expression in mouse BMDM cells at 0.5 to 2 uM pretreated with pam3CSK4 for 3 hrs followed by compound addition for 30 mins prior to cytosolic LPS stimulation for 16 hrs by ELISA; format: functional, cell-based; details: dose 0.5-2 µM, time 16.5 hrs
J774.A1 [11] = assay: Binding affinity to pro-caspase 1 in mouse J774.A1 cells assessed as increase in protein stability incubated for 30 mins by CETSA; format: cell-based; details: dose 1-100 µM
[12] = target: NACHT, LRR and PYD domains-containing protein 3 (Mus musculus) (UniProt Q8R4B8); assay: Inhibition of NLRP3 inflammasome activation in LPS primed Casp1 knockout mouse BMDM cells transfected with caspase-1 C284A mutant assessed as reduction in IL-1beta release at 2 uM preincubated for 30 mins followed by nigericin stimulation; format: cell-based
[13] = target: NACHT, LRR and PYD domains-containing protein 3 (Mus musculus) (UniProt Q8R4B8); assay: Inhibition of NLRP3 inflammasome activation activation in LPS/nigericin stimulated mouse J774.A1 cells assessed as reduction in IL-1beta production pretreated with LPS for 3 hrs prior to compound addition for 30 mins followed by nigericin addition and measured after 45 mins by ELISA; format: cell-based; details: dose 0.001-2000 nM, time 75.0 min
Mus musculus = assay: Anti-inflammatory activity in MSU/C18:0 free fatty acid induced Kunming mouse model of gouty arthritis assessed as reduction IL-1beta release at 5 to 20 mg/kg, ip preadministered with compound for 30 mins followed by MSU/C18:0 free fatty acid injection and measured after 24 hrs by ELISA; format: functional, organism-based; details: dose 5-20 mg/kg, time 24.5 hrs
[14] = Tmax in rat at 10 mg/kg, iv; format: ADME, organism-based; details: in vivo
J774.A1 [15] = assay: Inhibition of pyroptosis in mouse J774.A1 cells assessed as reduction in cleaved GSDMD expression at 0.5 to 2 uM pretreated with LPS for 3 hrs followed by compound addition in presence of nigericin by Western blotting analysis; format: functional, cell-based; details: dose 0.5-2 µM
[16] = Acute toxicity in Kunming mouse assessed as heart damage at 100 mg/kg, ip administered for 14 days; format: organism-based; details: in vivo, 336 h, time 14 day

COc1ccc2c(c1)[C@]1(C=C[C@H](N=C=S)C[C@H]1C(=O)OC(C)(C)C)C(=O)N2C(=O)OCc1ccccc1
inhibition [1]: Active | Activity (Caspase-1 (Homo sapiens)): 16% | inhibition (J774.A1 [2]): Active | Activity (THP-1 [3]): inactive | Activity (THP-1 [4]): inactive | Activity (Caspase-1 (Mus musculus)): Tde | inhibition (HEK293T [5]): inactive | Activity (THP-1 [6]): inactive | inhibition [7]: inactive | Activity [8]: Active | Activity [9]: Non-Toxic | inhibition (HEK293T [10]): Active | Activity (BMDM): inactive | Activity (J774.A1 [11]): Dose-Dependent Effect | inhibition [12]: inactive | inhibition [13]: Dose-Dependent Effect | Activity (Mus musculus): Active | Tmax [14]: 4.98 min | inhibition (J774.A1 [15]): Active | Activity [16]: Non-Toxic
